The test system of this experiment is A. brasiliensis. The experiment in a line: Preservation challenge test of inoculated O/W emulsion (ISO 11930). It is filed as cell-based, Aspergillus brasiliensis. The settings on record: stored 22.5±2.5° C. The method, then: The evaluation of the preservation of a cosmetic formulation is based on inoculation of the formulation as outlined in table 1 with calibrated inocula (prepared from relevant strains of micro-organisms). Therefore, to each formulation 0.2 ml of calibrated inoculum is added to obtain between 1×10^2 cfu/ml and 1×10^6 cfu/ml or g of A. brasiliensis in the formulation (final concentration), which is mixed thoroughly into the formulation to ensure a homogeneous distribution of the inoculum. Then the respective containers containing the inoculated formulations are stored @22.5±2.5° C. At each specified sampling interval (initial (T0), 7 days (T7) and 28 days ([…])) 1 g of the inoculated formulation is taken and a dilution prepared to perform the enumeration of surviving micro-organisms. Then, for each time and each strain/strain mixture, the average log value is calculated which is represented in tables 2 and 3. (Procedure: see ISO 11930, chapter 5.2.-5.6.3.4. (page 3-13)) [table]

The mark [1] stands for this setting: ERY 0.1 wt.-%, HG & EHG 0.9 wt.-%, time 0 days (T0).
Setting [2] is: ERY 0.1 wt.-%, HG & EHG 0.9 wt.-%, time 7 days (T7).
[3] abbreviates: ERY 0.4 wt.-%, HG & EHG 0.6 wt.-%, time 0 days (T0).
The mark [4] stands for this setting: ERY 0.4 wt.-%, HG & EHG 0.6 wt.-%, time 7 days (T7).

This is an account of results in patent publication US20220296480A1, “TOPICAL COMPOSITIONS” (DSM IP ASSETS B.V., priority 2019, published 2022).

With `O=C(CO)[C@H](O)CO` (racemic) [ERY, Erythrulose], the “Average log [cfu/ml]” value was determined as 1.8 log [cfu/ml] under setting [1], 3.5 log [cfu/ml] under setting [2], 2.0 log [cfu/ml] under setting [3] and 2.9 log [cfu/ml] under setting [4].

As for `CCCCC(CC)COCC(O)CO` (stereo not shown) [EHG, Ethylhexyl glycerine], the “Average log [cfu/ml]” value is, setting by setting: under setting [1], 4.6 log [cfu/ml]; under setting [2], 4.2 log [cfu/ml]; (ERY 0.1 wt.-%, HG & EHG 0.9 wt.-%, time 28 days (T28)) 4.5 log [cfu/ml]; under setting [3], 4.6 log [cfu/ml]; under setting [4], 4.4 log [cfu/ml]; (ERY 0.4 wt.-%, HG & EHG 0.6 wt.-%, time 28 days (T28)) 4.6 log [cfu/ml].
